Test results as given in ChEMBL document CHEMBL4014283, “Structural insights of SmKDAC8 inhibitors: Targeting Schistosoma epigenetics through a combined structure-based 3D QSAR, in vitro and synthesis strategy” (Bioorg Med Chem, 2017).

Target: T1, Histone deacetylase 8 (Schistosoma mansoni) (UniProt A5H660)
T1 sequence (whole entry): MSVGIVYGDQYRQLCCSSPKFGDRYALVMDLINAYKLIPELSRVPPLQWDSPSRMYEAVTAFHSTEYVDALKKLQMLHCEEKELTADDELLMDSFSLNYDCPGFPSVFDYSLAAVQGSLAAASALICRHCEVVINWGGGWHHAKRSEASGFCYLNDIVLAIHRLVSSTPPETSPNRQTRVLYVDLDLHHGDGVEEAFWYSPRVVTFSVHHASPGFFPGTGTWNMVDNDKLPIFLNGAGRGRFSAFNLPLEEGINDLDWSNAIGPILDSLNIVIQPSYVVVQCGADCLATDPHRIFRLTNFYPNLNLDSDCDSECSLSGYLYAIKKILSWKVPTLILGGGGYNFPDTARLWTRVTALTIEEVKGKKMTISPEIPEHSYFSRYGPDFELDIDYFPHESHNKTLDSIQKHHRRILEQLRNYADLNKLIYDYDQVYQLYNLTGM
Test: Inhibition of Schistosoma mansoni KDAC8 at 30 uM using (FAM)-labeled peptide as substrate after 60 mins by microfluidic assay

Row | Compound | inhibition [%]
1 | CC(C)[C@@H]1NC(=O)[C@@H]2CCCN2C(=O)[C@H]2CCCN2C(=O)C[C@@H](C(=O)NCCCN)NC1=O | 0
2 | CC(C)[C@@H]1NC(=O)[C@H]2CCCN2C(=O)[C@@H]2CCCN2C(=O)C[C@H](C(=O)NCCS)NC1=O | 0
3 | CC(C)[C@@H]1NC(=O)[C@@H]2CCCN2C(=O)[C@H]2CCCN2C(=O)C[C@H](C(=O)NCCCC(=O)NO)NC1=O | 25.8
4 | CC(C)[C@@H]1NC(=O)[C@@H]2CCCN2C(=O)[C@H]2CCCN2C(=O)C[C@@H](C(=O)NCCCC(=O)NO)NC1=O | 21.2
5 | CC(C)[C@@H]1NC(=O)[C@@H]2CCCN2C(=O)[C@H]2CCCN2C(=O)C[C@H](C(=O)NCCCS(C)(=O)=O)NC1=O | 0
6 | CC(C)[C@@H]1NC(=O)[C@@H]2CCCN2C(=O)[C@H]2CCCN2C(=O)C[C@H](C(=O)NCCS)NC1=O | 8.3
7 | CC(C)[C@@H]1NC(=O)[C@@H]2CCCN2C(=O)[C@H]2CCCN2C(=O)C[C@@H](C(=O)NCCSSCCNP(=O)(Oc2ccccc2)Oc2ccccc2)NC1=O | 0
8 | COC(=O)CCCNC(=O)[C@@H]1CC(=O)N2CCC[C@@H]2C(=O)N2CCC[C@H]2C(=O)N[C@@H](C(C)C)C(=O)N1 | 0
9 | CC(C)[C@@H]1NC(=O)[C@H]2CCCN2C(=O)[C@@H]2CCCN2C(=O)C[C@H](C(=O)NCCCC(=O)O)NC1=O | 0
10 | CC(C)[C@@H]1NC(=O)[C@@H]2CCCN2C(=O)[C@H]2CCCN2C(=O)C[C@@H](C(=O)NCCCSSCCCNC(=O)[C@@H]2CC(=O)N3CCC[C@@H]3C(=O)N3CCC[C@H]3C(=O)N[C@@H](C(C)C)C(=O)N2)NC1=O | 0
11 | CC(C)[C@@H]1NC(=O)[C@@H]2CCCN2C(=O)[C@H]2CCCN2C(=O)C[C@H](C(=O)NCCSSCCN)NC1=O | 0
12 | CC(C)[C@@H]1NC(=O)[C@@H]2CCCN2C(=O)[C@H]2CCCN2C(=O)C[C@H](C(=O)NCCCC(=O)O)NC1=O | 0
13 | O=C(O)CCCCN1C(=O)[C@H](CCC(=O)NC(c2ccccc2)(c2ccccc2)c2ccccc2)N=C(c2ccccc2)c2ccccc21 | 0
14 | CC(C)[C@@H]1NC(=O)[C@@H]2CCCN2C(=O)[C@H]2CCCN2C(=O)C[C@@H](C(=O)NCCCS(C)(=O)=O)NC1=O | 0
15 | CC(C)[C@@H]1NC(=O)[C@H]2CCCN2C(=O)[C@@H]2CCCN2C(=O)C[C@@H](C(=O)NCCS)NC1=O | 0
16 | CC(C)[C@@H]1NC(=O)[C@@H]2CCCN2C(=O)[C@H]2CCCN2C(=O)C[C@@H](C(=O)NCCSSCCNC(=O)[C@@H]2CC(=O)N3CCC[C@@H]3C(=O)N3CCC[C@H]3C(=O)N[C@@H](C(C)C)C(=O)N2)NC1=O | 0
17 | CC(C)[C@@H]1NC(=O)[C@@H]2CCCN2C(=O)[C@H]2CCCN2C(=O)C[C@@H](C(=O)NCCS)NC1=O | 0
18 | CC(C)[C@@H]1NC(=O)[C@@H]2CCCN2C(=O)[C@H]2CCCN2C(=O)C[C@H](C(=O)NCCC[S+](C)[O-])NC1=O (some centres undefined) | 0
19 | CC(C)[C@@H]1NC(=O)[C@@H]2CCCN2C(=O)[C@H]2CCCN2C(=O)C[C@@H](C(=O)OCc2ccccc2)NC1=O | 0
20 | CSCCCNC(=O)[C@@H]1CC(=O)N2CCC[C@@H]2C(=O)N2CCC[C@H]2C(=O)N[C@@H](C(C)C)C(=O)N1 | 0

Row | Compound | inhibition [%]
21 | CSCCCNC(=O)[C@@H]1CC(=O)N2CCC[C@H]2C(=O)N2CCC[C@@H]2C(=O)N[C@@H](C(C)C)C(=O)N1 | 0
22 | CC(C)[C@@H]1NC(=O)[C@H]2CCCN2C(=O)[C@@H]2CCCN2C(=O)C[C@@H](C(=O)NCCCSSCCCNC(=O)[C@@H]2CC(=O)N3CCC[C@H]3C(=O)N3CCC[C@@H]3C(=O)N[C@@H](C(C)C)C(=O)N2)NC1=O | 0
23 | CC(C)[C@@H]1NC(=O)[C@H]2CCCN2C(=O)[C@@H]2CCCN2C(=O)C[C@@H](C(=O)NCCSSCCNC(=O)[C@@H]2CC(=O)N3CCC[C@H]3C(=O)N3CCC[C@@H]3C(=O)N[C@@H](C(C)C)C(=O)N2)NC1=O | 0
24 | CC(C)[C@@H]1NC(=O)[C@H]2CCCN2C(=O)[C@@H]2CCCN2C(=O)C[C@@H](C(=O)NCCCSCCN)NC1=O | 0
25 | CC(C)[C@@H]1NC(=O)[C@H]2CCCN2C(=O)[C@@H]2CCCN2C(=O)C[C@@H](C(=O)O)NC1=O | 0
26 | CC(C)[C@@H]1NC(=O)[C@@H]2CCCN2C(=O)[C@H]2CCCN2C(=O)C[C@H](C(=O)OCc2ccccc2)NC1=O | 0
27 | CC(C)[C@@H]1NC(=O)[C@H]2CCCN2C(=O)[C@@H]2CCCN2C(=O)C[C@@H](C(=O)NCCCC(=O)O)NC1=O | 0
28 | CC(C)[C@@H]1NC(=O)[C@@H]2CCCN2C(=O)[C@H]2CCCN2C(=O)C[C@@H](C(=O)NCCCS)NC1=O | 0.84
29 | CC(C)[C@@H]1NC(=O)[C@H]2CCCN2C(=O)[C@@H]2CCCN2C(=O)C[C@H](C(=O)NCCCS)NC1=O | 3.18
30 | CC(C)[C@@H]1NC(=O)[C@H]2CCCN2C(=O)[C@@H]2CCCN2C(=O)C[C@@H](C(=O)NCCCS(C)(=O)=O)NC1=O | 0
31 | CC(C)[C@@H]1NC(=O)[C@H]2CCCN2C(=O)[C@@H]2CCCN2C(=O)C[C@@H](C(=O)NCCCO)NC1=O | 0
32 | CC(C)[C@@H]1NC(=O)[C@H]2CCCN2C(=O)[C@@H]2CCCN2C(=O)C[C@H](C(=O)O)NC1=O | 0
33 | CC(C)[C@@H]1NC(=O)[C@@H]2CCCN2C(=O)[C@H]2CCCN2C(=O)C[C@@H](C(=O)NCCCC(=O)O)NC1=O | 0
34 | CC(C)[C@@H]1NC(=O)[C@H]2CCCN2C(=O)[C@@H]2CCCN2C(=O)C[C@H](C(=O)NCCCSCCN)NC1=O | 0
35 | CSCCCNC(=O)[C@H]1CC(=O)N2CCC[C@@H]2C(=O)N2CCC[C@H]2C(=O)N[C@@H](C(C)C)C(=O)N1 | 0
36 | CC(C)[C@@H]1NC(=O)[C@@H]2CCCN2C(=O)[C@H]2CCCN2C(=O)C[C@@H](C(=O)NCCSSCCN)NC1=O | 0
37 | CC(C)[C@@H]1NC(=O)[C@H]2CCCN2C(=O)[C@@H]2CCCN2C(=O)C[C@@H](C(=O)OCc2ccccc2)NC1=O | 0
38 | CC(C)[C@@H]1NC(=O)[C@@H]2CCCN2C(=O)[C@H]2CCCN2C(=O)C[C@H](C(=O)NCCSSCCNP(=O)(Oc2ccccc2)Oc2ccccc2)NC1=O | 3
39 | CC(C)[C@@H]1NC(=O)[C@H]2CCCN2C(=O)[C@@H]2CCCN2C(=O)C[C@H](C(=O)NCCSSCCNC(=O)[C@H]2CC(=O)N3CCC[C@H]3C(=O)N3CCC[C@@H]3C(=O)N[C@@H](C(C)C)C(=O)N2)NC1=O | 0
40 | CC(C)[C@@H]1NC(=O)[C@@H]2CCCN2C(=O)[C@H]2CCCN2C(=O)C[C@@H](C(=O)NCCCO)NC1=O | 0

Row | Compound | inhibition [%]
41 | COC(=O)CCCNC(=O)[C@@H]1CC(=O)N2CCC[C@H]2C(=O)N2CCC[C@@H]2C(=O)N[C@@H](C(C)C)C(=O)N1 | 0
42 | CC(C)[C@@H]1NC(=O)[C@H]2CCCN2C(=O)[C@@H]2CCCN2C(=O)C[C@@H](C(=O)NCCCS)NC1=O | 1.45
43 | CC(C)[C@@H]1NC(=O)[C@@H]2CCCN2C(=O)[C@H]2CCCN2C(=O)C[C@H](C(=O)O)NC1=O | 0
44 | CC(C)[C@@H]1NC(=O)[C@@H]2CCCN2C(=O)[C@H]2CCCN2C(=O)C[C@@H](C(=O)O)NC1=O | 0
45 | CC(C)[C@@H]1NC(=O)[C@H]2CCCN2C(=O)[C@@H]2CCCN2C(=O)C[C@H](C(=O)NCCCO)NC1=O | 0
46 | CC(C)[C@@H]1NC(=O)[C@H]2CCCN2C(=O)[C@@H]2CCCN2C(=O)C[C@H](C(=O)Cc2ccccc2)NC1=O | 0
47 | CC(C)[C@@H]1NC(=O)[C@@H]2CCCN2C(=O)[C@H]2CCCN2C(=O)C[C@H](C(=O)NCCCO)NC1=O | 0
48 | CC(C)[C@@H]1NC(=O)[C@H]2CCCN2C(=O)[C@@H]2CCCN2C(=O)C[C@H](C(=O)NCCCSSCCCNC(=O)[C@H]2CC(=O)N3CCC[C@H]3C(=O)N3CCC[C@@H]3C(=O)N[C@@H](C(C)C)C(=O)N2)NC1=O | 3.36
49 | CC(C)[C@@H]1NC(=O)[C@@H]2CCCN2C(=O)[C@H]2CCCN2C(=O)C[C@H](C(=O)NCCCN)NC1=O | 0
50 | CC(C)[C@@H]1NC(=O)[C@H]2CCCN2C(=O)[C@@H]2CCCN2C(=O)C[C@H](C(=O)NCCC[S+](C)[O-])NC1=O (some centres undefined) | 0
51 | CC(C)[C@@H]1NC(=O)[C@H]2CCCN2C(=O)[C@@H]2CCCN2C(=O)C[C@H](C(=O)NCCCS(C)(=O)=O)NC1=O | 0
52 | CC(C)[C@@H]1NC(=O)[C@H]2CCCN2C(=O)[C@@H]2CCCN2C(=O)C[C@@H](C(=O)NCCC[S+](C)[O-])NC1=O (some centres undefined) | 0
53 | CC(C)[C@@H]1NC(=O)[C@@H]2CCCN2C(=O)[C@H]2CCCN2C(=O)C[C@H](C(=O)NCCCSSCCCNC(=O)[C@H]2CC(=O)N3CCC[C@@H]3C(=O)N3CCC[C@H]3C(=O)N[C@@H](C(C)C)C(=O)N2)NC1=O | 0
54 | COC(=O)CCCNC(=O)[C@H]1CC(=O)N2CCC[C@@H]2C(=O)N2CCC[C@H]2C(=O)N[C@@H](C(C)C)C(=O)N1 | 0
55 | COC(=O)CCCNC(=O)[C@H]1CC(=O)N2CCC[C@H]2C(=O)N2CCC[C@@H]2C(=O)N[C@@H](C(C)C)C(=O)N1 | 1.47
56 | CC(C)[C@@H]1NC(=O)[C@@H]2CCCN2C(=O)[C@H]2CCCN2C(=O)C[C@H](C(=O)NCCSSCCNC(=O)[C@H]2CC(=O)N3CCC[C@@H]3C(=O)N3CCC[C@H]3C(=O)N[C@@H](C(C)C)C(=O)N2)NC1=O | 0
57 | CC(C)[C@@H]1NC(=O)[C@@H]2CCCN2C(=O)[C@H]2CCCN2C(=O)C[C@@H](C(=O)NCCC[S+](C)[O-])NC1=O (some centres undefined) | 0
58 | CSCCCNC(=O)[C@H]1CC(=O)N2CCC[C@H]2C(=O)N2CCC[C@@H]2C(=O)N[C@@H](C(C)C)C(=O)N1 | 0
59 | CC(C)[C@@H]1NC(=O)[C@@H]2CCCN2C(=O)[C@H]2CCCN2C(=O)C[C@H](C(=O)NCCCS)NC1=O | 14.6
